Assay results from patent EP0294814B1, “Treating agents for renal diseases” (DAIICHI PHARMACEUTICAL CO., LTD., priority 1987, dated 1988).
Structures can show the parent of a compound that is named as a salt.

Assays:
thromboxane A₂ = conditions: known from prior art; cited from earlier work
[1] = system: diabetic nephropathy or glomerulonephritis; conditions: applied to diabetic nephropathy or glomerulonephritis, literature reports; cited from earlier work
Diabetic SHR = test: Diabetic nephropathy model: excretion of protein, γ-GTP and NAβG in the urine; format: in vivo, rat; conditions: after 4 months of administration
Experimental: (§1) 5-Week old spontaneous hypertensive male rats (SHR) and normotensive Wister Kyoto rats (WKY), both available from Nippon Charles River, were used. Streptozotocin (STZ) was dissolved in a 0.1M citrate buffer solution (pH 4.5) and injected to the tail vein of the rat at a dose level of 50 mg/kg to prepare a diabetic rat. For control, the rat received 1 ml/kg of the citrate buffer solution alone through administration to the tail vein. After one week from the STZ administration, blood was taken from the tail vein of the unanesthetized rat, and the blood sugar level was measured. Those rats having a blood sugar level of […] or higher were used as diabetic rats. […]
After 4 months from the start of the administration of Compound A, urine was collected for 24 hours, and the protein, γ-GTP activity and NAβG activity in the urine were determined by the method of Kinsbury et al., the method of using a commercially available kit (γ-GTP Test Pack, produced by Sankyo Co., Ltd.), and the method of Hasebe et al., respectively.

[2] = Diabetic nephropathy model: influence on body weight of SHR and diabetic SHR; format: in vivo, rat; conditions: SHR
Experimental: as §1

[3] = Hydronephrosis model: clearance test; format: in vivo, SD male rat; conditions: Normal Kidney, 0.3 µg/min infused into renal artery, mean±S.E. of 5 cases
Experimental: (§2) An abdominal incision was made in a SD male rat having a body weight of from 300 to 400 g under light anesthesia with diethyl ether. After the left urinary tract was ligated in the middle between the bladder and the kidney, the incision was closed, and the animal was fed on foods and tap water, ad lib.
(§3) After 18 hours from the ligation of the urinary tract, a cannula was inserted in the urinary tracts on both sides, the right femoral artery and the right femoral vein for collection of blood samples, infusion of inulin and infusion of p-aminohippuric acid, respectively, under Inactin anesthesia. Physiological saline containing 20 mg/ml of inulin and physiological saline containing 4 mg/ml of p-aminohippuric acid were continuously infused each at a rate of 0.4 ml/min in a 1/20 amount of the body weight. On confirming that the urinary output became constant after 50 minutes from the start of the infusion, urine was collected separately from the right and left urinary tracts at intervals of 20 minutes, and blood samples were obtained at the middle between urine collections. Immediately preceding the start of urine collection, infusion of physiological saline at a rate of 25 µl/min into the left femoral artery was instituted and continued for 40 minutes. Thereafter, a solution of a hydrochloride hemihydrate of Compound A in physiological saline was continuously infused at a dose level of 0.3 µg/25 µl/min/rat for 40 minutes into the inlet of the renal artery through a retrograde cannula inserted from the left femoral artery. Inulin levels in urine and in blood were determined according to the anthrone method (H.H. Hilger et al., Pflügers Arch Physiol., Vol. 267, 218 (1958)), and p-aminohippuric acid levels in urine and blood were determined according to the method of Smith et al. (H.W. Smith et al., J. Clin. Invest., Vol. 24, 388 (1945)), to calculate clearance values of inulin and p-aminohippuric acid.

Hydronephrotic Kidney = test: Hydronephrosis model: clearance test; format: in vivo, SD male rat; conditions: Normal Kidney, 0.3 µg/min infused into renal artery, mean±S.E. of 5 cases
Experimental: as §2, §3

[4] = system: Ischemic Insufficient Kidney; test: Ischemic renal insufficiency model: renal function; format: in vivo, SD rat; conditions: 10 mg/kg intraperitoneally 30 minutes before ligature of renal arteries; 24 hours after reperfusion; mean±S.E.
Experimental: An abdominal incision was made in a SD vale rat weighing 300 to 450 g under pentobarbital anesthesia, and renal arteries of both sides were ligated with a clamp for 40 minutes and then reopened to prepare an animal suffering from isochemic renal insufficiency.
The hydrochloride hemihydrate of Compound A was dissolved in physiological saline, and administered intraperitoneally to the test animal at a dose level of 10 mg/2 ml/kg 30 minutes before the ligature of the renal arteries. The control group received the same volume of physiological saline.
After the blood flow of the renal arteries was restored, the animal was fed on foods and tap water ad lib. for 24 hours. The clearance values of inulin and p-aminohippuric acid were determined in the same manner as described in Example 2.

rats = test: Acute toxicity in rats; format: in vivo
Text: Acute toxicities of a hydrochloride hemihydrate of Compound A in rats through oral administration or intravenous injection were as follows.

In the case of Cl.O=C(O)/C=C/c1ccc(Cn2ccnc2)cc1 [(E)-3-(4-(1-Imidazolylmethyl)phenyl)propenoic acid hydrochloride, reference compound], the “inhibition of the synthesis of thromboxane A₂” value (thromboxane A₂) is listed as “inhibit the synthesis of thromboxane A₂” and the “effect in treatment of renal diseases” value [1] is listed as “not satisfactory”.
With O=C(O)c1ccc2c(c1)CCC(Cn1ccnc1)C2 (centres unmarked) [Compound A, 6-(1-imidazolylmethyl)-5,6,7,8-tetrahydronaphthalene-2-carboxylic acid] the “Excretion in Urine for 24 h NAβG” value (Diabetic SHR; 1 mg/kg/day oral) was 0.536± 0.086 mg/100 g B.W, the “Excretion in Urine for 24 h Protein” value (Diabetic SHR; 1 mg/kg/day oral) was 6.82± 1.56 mg/100 g B.W and the “Excretion in Urine for 24 h γ-GTP” value (Diabetic SHR; 1 mg/kg/day oral) was 2.83± 0.32 U/100 g B.W. For the same molecule, the “Excretion in Urine for 24 h NAβG” value (Diabetic SHR; 10 mg/kg/day oral) was 0.412± 0.056 mg/100 g B.W, the “Excretion in Urine for 24 h Protein” value (Diabetic SHR; 10 mg/kg/day oral) was 4.00± 0.59 mg/100 g B.W and the “Excretion in Urine for 24 h γ-GTP” value (Diabetic SHR; 10 mg/kg/day oral) was 2.45± 0.22 U/100 g B.W. For the same molecule, the “inhibition of the synthesis of thromboxane A₂” value (thromboxane A₂) was “inhibit the synthesis of thromboxane A₂”, the “Body Weight (Mean±S.E.)” value ([2]; 1 mg/kg/day, 1 Month after start of admin.) was 280.3 ± 4.0 g and the “Body Weight (Mean±S.E.)” value ([2]; 1 mg/kg/day, 5 Months after start of admin.) was 392.4 ± 5.6 g. The “Body Weight (Mean±S.E.)” value ([2]; 10 mg/kg/day, 1 Month after start of admin.) was 278.7 ± 5.3 g, the “Body Weight (Mean±S.E.)” value ([2]; 10 mg/kg/day, 5 Months after start of admin.) was 385.3 ± 7.5 g and the “Inulin Clearance” value [3] was 1.77± 0.13 ml/min/ kidney. The “Urinary Output” value (Hydronephrotic Kidney) was 7.47± 0.83 µℓ/min/ kidney, the “p-Aminohippuric Acid Clearance” value (Hydronephrotic Kidney) was 5.95±0.50 ml/min/kidney and the “Inulin Clearance” value [4] was 0.32± 0.05 ml/min/kidney. The “Urinary Output” value [4] was 11.30± 1.53 µl/min/kidney and the “p-Aminohippuric Acid Clearance” value [4] was 1.01±0.17 ml/min/kidney.
With O=C(O)c1ccc2c(c1)CCC(Cn1ccnc1)C2 (centres unmarked) [hydrochloride hemihydrate of Compound A, 6-(1-imidazolylmethyl)-5,6,7,8-tetrahydronaphthalene-2-carboxylic acid] the LD₅₀ (rats; Female rats, i.v.) was 783 (i.v.) mg, the LD₅₀ (rats; Female rats, p.o.) was 1994 (p.o.) mg and the LD₅₀ (rats; Male rats, i.v.) was 807 mg. The LD₅₀ (rats; Male rats, p.o.) was 2438 mg.
